This note sets out measurements from ChEMBL document CHEMBL1142358, “3-amino-benzo[d]isoxazoles as novel multitargeted inhibitors of receptor tyrosine kinases” (J Med Chem, 2008).

Broadly, the Vd is a proportionality between amount in the body and measured concentration, not a real space. The low end stands for little distribution into tissue, the high end for wide distribution into tissue. By half-life is commonly meant how long it takes for the measured level to halve. Usually ED50 stands for the dose at which the effect has come halfway, by size or by number of responders. Low readings indicate an effect at a small dose, high ones a need for a large dose. In general, AUC refers to the area under the concentration-time curve, a measure of exposure. The term IC50 denotes the point on the concentration scale where inhibition reaches its midpoint. Low values mean greater potency in that assay, high ones weaker potency in that assay. Usually clearance stands for the rate of elimination divided by the concentration. Low values mean inefficient removal, high ones efficient removal. By bioavailability is commonly meant the share of a dose that reaches the circulation, judged against a reference dose that is usually intravenous.

Series [1] in a line: Volume of distribution in mouse at 1 mg/kg, iv. In kind it is ADME, organism-based. To be noted: in vivo. More on the design: dose 1 mg/kg, route intravenous.
Series [2] can be described thus: Half life in mouse at 1 mg/kg, iv. Set-up: dose 1 mg/kg, route intravenous. As to conditions: in vivo. The series is classed as ADME, organism-based.
For another series, the system named is Mus musculus. Nature of the series: Inhibition of estradiol-induced uterine edema in orally dosed BALB/c mouse edema model. As to conditions: po. In kind it is functional.
The nature of series [3]: AUC (0 to 24 hrs) in mouse plasma at 10 mg/kg/day. The series is classed as ADME, organism-based. More on the design: time < 24 hr, dose 10 mg/kg/day.
The target of series [4] is T1, Receptor-type tyrosine-protein kinase FLT3 (Homo sapiens, UniProt P36888).
T1 sequence (P36888 whole entry): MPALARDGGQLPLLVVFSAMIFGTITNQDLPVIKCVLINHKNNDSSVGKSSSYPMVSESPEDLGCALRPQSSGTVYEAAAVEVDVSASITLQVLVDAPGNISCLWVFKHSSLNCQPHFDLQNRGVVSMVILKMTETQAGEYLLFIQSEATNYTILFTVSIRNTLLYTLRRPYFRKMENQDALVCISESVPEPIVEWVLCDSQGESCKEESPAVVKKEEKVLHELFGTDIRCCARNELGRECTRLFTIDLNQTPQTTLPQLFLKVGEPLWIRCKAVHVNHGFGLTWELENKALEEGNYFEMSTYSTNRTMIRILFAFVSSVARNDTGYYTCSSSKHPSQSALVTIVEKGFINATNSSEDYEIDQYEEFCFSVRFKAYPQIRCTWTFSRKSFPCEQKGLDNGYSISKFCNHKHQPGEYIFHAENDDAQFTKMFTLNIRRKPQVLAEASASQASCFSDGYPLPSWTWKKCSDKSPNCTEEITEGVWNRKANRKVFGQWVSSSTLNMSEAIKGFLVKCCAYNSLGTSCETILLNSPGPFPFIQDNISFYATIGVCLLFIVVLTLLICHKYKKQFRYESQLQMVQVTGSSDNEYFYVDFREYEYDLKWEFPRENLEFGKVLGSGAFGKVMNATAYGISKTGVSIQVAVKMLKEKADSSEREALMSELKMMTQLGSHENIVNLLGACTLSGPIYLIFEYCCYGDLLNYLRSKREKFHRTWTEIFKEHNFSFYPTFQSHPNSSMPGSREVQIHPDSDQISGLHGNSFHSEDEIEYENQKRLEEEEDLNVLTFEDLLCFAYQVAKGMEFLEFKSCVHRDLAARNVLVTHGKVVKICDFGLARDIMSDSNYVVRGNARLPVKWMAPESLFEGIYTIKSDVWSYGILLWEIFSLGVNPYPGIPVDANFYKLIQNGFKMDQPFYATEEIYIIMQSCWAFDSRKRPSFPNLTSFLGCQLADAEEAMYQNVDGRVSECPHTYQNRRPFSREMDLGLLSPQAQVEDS
Description: Inhibition of FLT3 by HTRF assay

Series [5] addresses Platelet-derived growth factor receptor beta (Homo sapiens, UniProt P09619). Nature of the series: Inhibition of PDGFRbeta by HTRF assay. On the technique in general: Time-resolved FRET reads energy transfer from a long-lived donor to a nearby acceptor.
Series [6] is described as follows: Clearance in mouse at 1 mg/kg, iv. In kind it is ADME, organism-based. Set-up: dose 1 mg/kg, route intravenous. As to conditions: in vivo.
Series [7] is described as follows: Oral bioavailability in mouse at 10 mg/kg. In kind it is ADME, organism-based. To be noted: in vivo.
The target in series [8] is Tyrosine-protein kinase Lyn (Homo sapiens, UniProt P07948). Nature of the series: Inhibition of LYN by HTRF assay.
Sequence of Tyrosine-protein kinase Lyn (P07948 whole entry): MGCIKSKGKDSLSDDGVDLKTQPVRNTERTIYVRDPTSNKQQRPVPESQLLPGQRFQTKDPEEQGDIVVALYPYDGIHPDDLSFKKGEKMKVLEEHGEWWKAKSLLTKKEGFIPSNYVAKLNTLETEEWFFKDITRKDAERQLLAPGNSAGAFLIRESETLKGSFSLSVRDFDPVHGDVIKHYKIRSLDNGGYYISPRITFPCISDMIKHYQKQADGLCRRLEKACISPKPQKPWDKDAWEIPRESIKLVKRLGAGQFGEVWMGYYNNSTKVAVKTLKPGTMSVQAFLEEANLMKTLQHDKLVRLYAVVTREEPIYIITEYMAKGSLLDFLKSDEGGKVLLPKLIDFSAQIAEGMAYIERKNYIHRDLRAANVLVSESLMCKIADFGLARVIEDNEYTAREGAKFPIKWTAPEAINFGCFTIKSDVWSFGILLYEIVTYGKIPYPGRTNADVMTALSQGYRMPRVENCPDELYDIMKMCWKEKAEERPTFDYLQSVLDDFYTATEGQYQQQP
Series [9] addresses Tyrosine-protein kinase HCK (Homo sapiens, UniProt P08631). The series can be described thus: Inhibition of HCK by HTRF assay.
The subject of series [10] is HT-1080. Nature of the series: Inhibition of tumor growth in human HT1080 cells xenografted in SCID/Beige mouse at 10 mg/kg/day, bid relative to control. To be noted: read-out: TGI. In kind it is functional. In general terms: In xenograft studies the graft and the host belong to different species.
Series [11] deals with Macrophage colony-stimulating factor 1 receptor (Homo sapiens, UniProt P07333). The series can be described thus: Inhibition of CSF1R by HTRF assay.
The target in series [12] is Mast/stem cell growth factor receptor Kit (Homo sapiens, UniProt P10721). The series can be described thus: Inhibition of KIT by HTRF assay.
Sequence of Mast/stem cell growth factor receptor Kit (P10721 whole entry): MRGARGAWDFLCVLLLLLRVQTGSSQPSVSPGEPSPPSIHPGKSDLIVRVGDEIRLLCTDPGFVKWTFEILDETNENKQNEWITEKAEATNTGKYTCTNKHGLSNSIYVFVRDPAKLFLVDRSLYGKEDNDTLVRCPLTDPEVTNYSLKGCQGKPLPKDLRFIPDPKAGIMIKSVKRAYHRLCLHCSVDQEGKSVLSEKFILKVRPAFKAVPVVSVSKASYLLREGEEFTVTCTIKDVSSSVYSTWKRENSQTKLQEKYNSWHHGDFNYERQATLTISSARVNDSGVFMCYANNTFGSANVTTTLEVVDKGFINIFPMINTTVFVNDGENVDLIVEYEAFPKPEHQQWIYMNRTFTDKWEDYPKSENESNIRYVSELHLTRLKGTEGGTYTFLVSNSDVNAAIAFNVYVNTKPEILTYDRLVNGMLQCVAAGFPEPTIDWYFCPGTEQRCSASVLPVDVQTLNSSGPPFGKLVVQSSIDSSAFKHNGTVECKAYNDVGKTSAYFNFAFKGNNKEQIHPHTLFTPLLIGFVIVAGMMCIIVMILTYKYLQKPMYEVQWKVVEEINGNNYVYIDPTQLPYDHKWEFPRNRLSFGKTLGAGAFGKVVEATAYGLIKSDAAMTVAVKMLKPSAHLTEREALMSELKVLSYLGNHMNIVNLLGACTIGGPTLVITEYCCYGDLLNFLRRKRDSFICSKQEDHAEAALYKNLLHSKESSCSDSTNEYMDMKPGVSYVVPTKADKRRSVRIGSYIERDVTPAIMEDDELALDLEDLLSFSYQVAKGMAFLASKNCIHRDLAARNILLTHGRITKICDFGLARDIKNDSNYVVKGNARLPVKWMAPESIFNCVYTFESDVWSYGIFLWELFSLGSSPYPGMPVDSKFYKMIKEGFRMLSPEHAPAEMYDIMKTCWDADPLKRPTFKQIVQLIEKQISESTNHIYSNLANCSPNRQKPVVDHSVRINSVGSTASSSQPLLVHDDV
Series [13] is described as follows: AUC in mouse at 10 mg/kg, po. In kind it is ADME, organism-based. Set-up: dose 10 mg/kg, route oral. As to conditions: plasma.
The target of series [14] is Vascular endothelial growth factor receptor 1 (Homo sapiens, UniProt P17948). The series can be described thus: Inhibition of FLT1 by HTRF assay.
Series [15] addresses Proto-oncogene tyrosine-protein kinase Src (Homo sapiens, UniProt P12931). Nature of the series: Inhibition of SRC by HTRF assay.
Series [16] is described as follows: Inhibition of FGFR by HTRF assay.
The target of a further series is Angiopoietin-1 receptor (Homo sapiens, UniProt Q02763). The series can be described thus: Inhibition of TIE2 by HTRF assay.
Sequence of Angiopoietin-1 receptor (Q02763 whole entry): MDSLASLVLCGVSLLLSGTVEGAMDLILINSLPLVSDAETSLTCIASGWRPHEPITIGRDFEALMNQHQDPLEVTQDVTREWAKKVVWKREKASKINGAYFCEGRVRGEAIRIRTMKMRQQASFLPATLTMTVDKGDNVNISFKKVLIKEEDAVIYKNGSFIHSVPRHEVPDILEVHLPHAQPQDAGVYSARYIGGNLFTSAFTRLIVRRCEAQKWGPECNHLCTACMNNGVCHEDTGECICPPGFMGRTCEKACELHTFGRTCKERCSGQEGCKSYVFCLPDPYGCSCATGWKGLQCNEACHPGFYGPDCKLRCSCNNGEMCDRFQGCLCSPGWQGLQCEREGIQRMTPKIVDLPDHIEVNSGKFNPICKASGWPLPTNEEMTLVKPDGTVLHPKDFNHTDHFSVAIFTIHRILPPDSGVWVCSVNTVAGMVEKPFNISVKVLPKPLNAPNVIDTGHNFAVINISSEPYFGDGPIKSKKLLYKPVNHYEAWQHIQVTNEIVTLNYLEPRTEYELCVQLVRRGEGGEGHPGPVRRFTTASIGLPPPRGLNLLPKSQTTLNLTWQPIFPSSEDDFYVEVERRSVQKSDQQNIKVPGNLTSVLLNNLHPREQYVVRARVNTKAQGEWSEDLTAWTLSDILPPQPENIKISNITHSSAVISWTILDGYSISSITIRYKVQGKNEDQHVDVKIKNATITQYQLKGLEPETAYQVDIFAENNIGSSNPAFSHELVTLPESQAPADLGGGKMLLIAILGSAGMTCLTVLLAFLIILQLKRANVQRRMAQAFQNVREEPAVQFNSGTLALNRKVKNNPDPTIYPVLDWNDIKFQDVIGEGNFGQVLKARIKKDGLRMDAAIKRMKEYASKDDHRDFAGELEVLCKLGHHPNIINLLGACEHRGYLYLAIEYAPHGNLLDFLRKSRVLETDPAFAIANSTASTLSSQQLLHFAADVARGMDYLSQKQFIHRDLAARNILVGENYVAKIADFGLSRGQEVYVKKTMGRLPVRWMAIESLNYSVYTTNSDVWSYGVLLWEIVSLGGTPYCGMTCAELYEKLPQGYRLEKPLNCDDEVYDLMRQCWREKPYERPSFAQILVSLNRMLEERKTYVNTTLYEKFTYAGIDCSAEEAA
Series [17] in a line: Volume of distribution in mouse at 3 mg/kg, iv. In kind it is ADME, organism-based. Set-up: dose 3 mg/kg, route intravenous. To be noted: in vivo.
The nature of series [18]: Clearance in mouse at 3 mg/kg, iv. The series is classed as ADME, organism-based. As to conditions: in vivo. Set-up: dose 3 mg/kg, route intravenous.
Series [19] can be described thus: Half life in mouse at 3 mg/kg, iv. As to conditions: in vivo. Set-up: dose 3 mg/kg, route intravenous. In kind it is ADME, organism-based.
For series [20], the system named is HT-1080. Nature of the series: Inhibition of tumor growth in human HT1080 cells xenografted in SCID/Beige mouse at 30 mg/kg/day, bid relative to control. As to conditions: HT-1080, read-out: TGI.
Series [21] in a line: AUC (0 to 24 hrs) in mouse plasma at 30 mg/kg/day. In kind it is ADME, organism-based. More on the design: dose 30 mg/kg/day, time < 24 hr.

A value given as a limit tells only on which side of the number the result lay.

Sequence of Proto-oncogene tyrosine-protein kinase Src (P12931 2-536 limits assumed): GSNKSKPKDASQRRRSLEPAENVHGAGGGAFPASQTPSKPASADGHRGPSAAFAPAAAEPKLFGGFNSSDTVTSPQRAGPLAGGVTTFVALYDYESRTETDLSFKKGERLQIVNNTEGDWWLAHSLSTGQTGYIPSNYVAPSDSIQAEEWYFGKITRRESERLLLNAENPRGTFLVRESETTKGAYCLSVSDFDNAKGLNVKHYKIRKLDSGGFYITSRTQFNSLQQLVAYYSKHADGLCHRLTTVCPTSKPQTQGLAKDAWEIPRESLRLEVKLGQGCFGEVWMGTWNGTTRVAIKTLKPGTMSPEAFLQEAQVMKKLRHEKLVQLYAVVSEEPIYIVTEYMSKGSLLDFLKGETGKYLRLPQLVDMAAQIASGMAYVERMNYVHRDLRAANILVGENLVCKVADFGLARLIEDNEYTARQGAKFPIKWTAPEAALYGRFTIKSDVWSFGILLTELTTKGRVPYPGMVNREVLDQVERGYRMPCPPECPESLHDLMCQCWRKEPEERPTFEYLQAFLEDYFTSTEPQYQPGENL
Sequence of Platelet-derived growth factor receptor beta (P09619 whole entry): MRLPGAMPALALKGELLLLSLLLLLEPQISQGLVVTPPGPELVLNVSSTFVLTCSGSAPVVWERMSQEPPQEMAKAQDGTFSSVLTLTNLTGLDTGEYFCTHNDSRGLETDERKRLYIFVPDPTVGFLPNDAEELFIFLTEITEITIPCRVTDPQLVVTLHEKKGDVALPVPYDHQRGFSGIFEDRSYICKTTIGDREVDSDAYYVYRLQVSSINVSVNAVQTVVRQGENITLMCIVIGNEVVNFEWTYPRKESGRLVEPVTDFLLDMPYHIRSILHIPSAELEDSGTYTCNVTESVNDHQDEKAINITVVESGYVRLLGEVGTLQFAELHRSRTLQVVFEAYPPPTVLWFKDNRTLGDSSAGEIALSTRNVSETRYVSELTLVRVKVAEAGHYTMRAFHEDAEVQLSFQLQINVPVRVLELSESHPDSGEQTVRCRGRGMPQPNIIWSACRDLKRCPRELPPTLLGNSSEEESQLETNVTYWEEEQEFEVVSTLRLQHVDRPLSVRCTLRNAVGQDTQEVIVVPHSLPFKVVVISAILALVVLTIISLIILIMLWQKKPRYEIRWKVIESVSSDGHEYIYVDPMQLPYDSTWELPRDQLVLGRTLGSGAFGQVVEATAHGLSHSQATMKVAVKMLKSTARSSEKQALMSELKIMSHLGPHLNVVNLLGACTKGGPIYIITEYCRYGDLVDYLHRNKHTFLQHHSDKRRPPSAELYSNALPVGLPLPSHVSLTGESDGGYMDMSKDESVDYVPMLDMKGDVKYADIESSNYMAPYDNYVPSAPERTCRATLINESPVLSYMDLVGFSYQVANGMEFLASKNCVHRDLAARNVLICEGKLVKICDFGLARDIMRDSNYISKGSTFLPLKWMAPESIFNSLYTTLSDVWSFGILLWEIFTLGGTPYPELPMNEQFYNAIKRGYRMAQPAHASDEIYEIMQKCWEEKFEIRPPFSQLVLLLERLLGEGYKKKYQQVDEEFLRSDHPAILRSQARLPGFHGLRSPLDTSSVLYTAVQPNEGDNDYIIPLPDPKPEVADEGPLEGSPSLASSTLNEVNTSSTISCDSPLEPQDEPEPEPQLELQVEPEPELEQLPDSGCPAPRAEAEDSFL
Sequence of Tyrosine-protein kinase HCK (P08631 whole entry): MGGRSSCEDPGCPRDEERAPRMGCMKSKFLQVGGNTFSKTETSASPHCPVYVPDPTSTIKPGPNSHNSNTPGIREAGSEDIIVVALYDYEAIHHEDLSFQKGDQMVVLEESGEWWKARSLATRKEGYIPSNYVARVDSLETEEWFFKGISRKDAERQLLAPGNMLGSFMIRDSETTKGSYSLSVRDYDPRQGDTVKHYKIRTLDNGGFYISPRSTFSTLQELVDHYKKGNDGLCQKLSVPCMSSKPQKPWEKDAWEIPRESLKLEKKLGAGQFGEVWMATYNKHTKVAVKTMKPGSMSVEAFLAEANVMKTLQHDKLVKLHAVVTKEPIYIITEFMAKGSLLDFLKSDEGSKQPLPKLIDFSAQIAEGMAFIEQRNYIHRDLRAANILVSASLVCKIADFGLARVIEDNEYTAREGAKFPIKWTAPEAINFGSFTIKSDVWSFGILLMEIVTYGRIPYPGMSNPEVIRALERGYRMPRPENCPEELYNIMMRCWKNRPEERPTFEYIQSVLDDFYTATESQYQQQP

On to `COc1ccc(-c2ccc(NC(=O)Nc3cccc(C(F)(F)F)c3)cc2)c2c(N)noc12`, for which the Vd in series [1] came to 2.2 L/kg. Moreover, in series [2], the half-life was 0.9 h. The compound also returned an ED50 in the series with Mus musculus of 2 mg/kg. The compound further came in with an AUC at 24 h in [3] of 13.2 µM·h. In addition, the half-maximal inhibitory concentration (IC50) was 19 nM in [4]; 130 nM in [5]; above 50000 nM in series [8]; above 50000 nM in series [9]; 30 nM in series [11]; 56 nM in [12]. Moreover, the IC50 in series [14] was 16 nM; in series [15], above 50000 nM; in [16] it was 3000 nM; against Angiopoietin-1 receptor, 270 nM. The compound also gave a clearance in series [6] of 28.3 mL/min/kg. The same compound gave a bioavailability in series [7] of 100%. Also, the inhibition in vivo at 10 mg/kg/day in the series on HT-1080 [10] was 81%. In series [13], this compound displayed an AUC of 30.6 µM·h.
Take `Cc1ccc(F)c(NC(=O)Nc2ccc(-c3cccc4[nH]nc(N)c34)cc2)c1` [LINIFANIB]: in [17], the Vd worked out at 2.7 L/kg. Also, in the series with Mus musculus, the ED50 amounted to 0.4 mg/kg. This compound also had a clearance in [18] of 18.3 mL/min/kg. In addition, in series [19], the half-life was 1.7 h. Besides, the inhibition in vivo at 30 mg/kg/day in the series on HT-1080 [20] was determined as 85%. In [21], this compound yielded an exposure (AUC) at 24 h of 19.1 µM·h. In addition, the IC50 in series [8] is above 50000 nM.
